This is an account of results in patent publication US20240050414A1, “A COMPOSITION FOR USE IN THE TREATMENT OF INFERTILITY” (priority 2020, published 2024).

Where only a bound is given, the exact number is not on record here.

The test system of one data set is sperm. Kind of data set: CASA sperm motility assessment. The data set is classed as cell-based, human. Particulars: for maintaining percentage of motile and progressive sperm and VAP: 24 and 48 hour. On the procedure: FIG. 1 illustrates the evaluation of the cytoprotective and antioxidant compound ergothionine for ability to preserve sperm motility and progression, wherein sperm were separated from seminal fluid by density gradient centrifugation, washed in sperm wash media, and incubated in multipurpose handling medium for 48 hours in the presence of antioxidant, wherein path velocity (A) and sperm motility (B) were quantified by CASA, wherein for statistical analysis the log ratio to control was used as the dependent variable in ONEWAY ANOVA with posthoc testing by Dunnet's test (comparisons against a single ‘control’ value only), wherein N>12 per group;
FIG. 4 illustrates ergothionine effectively maintains sperm motility and progression, wherein sperm were separated from seminal fluid by density gradient centrifugation, washed in sperm wash media and incubated in multipurpose handling medium in the presence of ergothionine at 1 mM for 24 hours (A-C) or 48 hours (D-F) or in the presence of ergothionine at 0.1 mM for 24 hours (G-I) or 48 hours (J-L), wherein sperm motility was analysed using CASA, wherein statistical analysis was performed using the Wilcoxon signed-rank, wherein N=26 per group for ergothionine at 1 mM and N=10 per group for 0.1 mM ergothionine;
FIG. 8 illustrates a head-to-head comparison of the effect of a commercially available composition and the composition on sperm motility, wherein sperm were separated from seminal fluid by density gradient centrifugation, washed in sperm wash media and incubated in multipurpose handling medium in the presence of the commercially available composition (A,B) and the composition (C,D) for a period of 30 minutes, wherein sperm motility was analysed using CASA, wherein statistical analysis was performed using the Wilcoxon signed-rank test, wherein N=6 per group; and
Sperm motility assessments were carried out by Computer Assisted Sperm Analysis (CASA) using the Hamilton Thorne software and a Zeiss microscope, following WHO and manufacturers' guidelines. Briefly, semen samples were resuspended using Pasteur pipettes and diluted 1 in 3 in sperm wash media (Irvine Scientific, 9983). […] Motility assessment was evaluated by capturing at least 1000 sperm cell tracks per slide for unprocessed samples and 300 for processed samples. Total cell count (×10e6/ml), percentage immotile (IM), non-progressively motile (NP) and progressively motile (PR) sperm and average path velocity (VAP) for M and PM sperm was recorded for each sample as defined by World Health Organisation (WHO) laboratory manual for the examination and processing of human semen (fifth edition, 2010). […]

Data set [1] has as its system mouse oocytes with mouse sperm. Kind of data set: In vitro fertilisation and embryo development to blastocyst. The data set is classed as cell-based. Particulars: Example 6, control PBS. On the procedure:
To evaluate this, in vitro fertilisation studies were performed in the presence of the composition at a concentration of 10% and subsequent embryo development examined to blastocyst stage (see FIG. 7).

For data set [2], the system named is rats. Particulars: fed 0.9% of diet for 13 weeks; cited from earlier work.
In a further data set the test system is embryo development. Particulars: 0.1 mM; cited from earlier work.
The conditions of data set [3]: cited from earlier work.
For data set [4], the system named is bovine embryo development. Particulars: cited from earlier work.
In data set [5] the test system is rats. Particulars: 2 g/kg; cited from earlier work.
The test system of the next data set is sheep oocytes. Particulars: cited from earlier work.
A further data set concerns 8-OH-G on sperm DNA. Kind of data set: Flow cytometric assay of oxidative DNA damage (8-OHG) on sperm DNA. The data set is classed as cell-based, human. On the procedure: FIG. 3 illustrates evaluating the effect of ergothionine on sperm oxidative DNA damage, wherein sperm were separated from seminal fluid by density gradient centrifugation, washed in sperm wash media, and incubated in multipurpose handling medium for 48 hours in the presence of the cytoprotective and antioxidant compound ergothionine, wherein sperm were fixed in 4% PFA and stained with FITC labelled 8-OHG antibody (2 μg/ml) for 60 mins, washed and analysed by flow cytometry, wherein data were analyzed using FlowJo software and the mean fluorescent intensity (MFI) plotted, wherein statistical analysis was performed using the Wilcoxon signed-rank test, wherein N=6 per group;
A total of 1×10e6 washed semen samples were fixed by re-suspending the washed sperm cell pellet in 500 μl of 4% paraformaldehyde (Chem Cruz, 281692), pH 7.2 and incubating for 20-30 minutes at RT. Fixed spermatozoa were centrifuged at 2,500×g for 1.5 minutes and washed twice in 500 μl 1% NGS-PBS buffer.
Measurement of oxidative DNA damage was determined using anti-DNA/RNA [15A3] […]
ROS and DNA damage are the most significant contributors to male infertility. […] In measuring this parameter, a flow cytometric assay was developed that could quantify the amount of 8-hydroxyguanine (8-OH-G) in the DNA of individual sperm by the use of a specific fluorescently-labelled monoclonal antibody (see FIG. 2).

In the case of `C[N+](C)(C)[C@@H](Cc1c[nH]c(=S)[nH]1)C(=O)[O-]` [ergothionine], the “effects on sperm motility and average path velocity (VAP)” value in the data set with sperm (48 hours in multipurpose handling medium, FIG. 1) is “sperm protective properties”. The “maintaining percentage of motile and progressive sperm and VAP” value in the data set with sperm (ergothionine 0.1 mM, p values 0.04 for all parameters) was “effective at maintaining the percentage of motile and progressive sperm in addition to the speed of the movement (VAP)”; with sperm (ergothionine 1 mM, p values 0.002 for all parameters) it was “effective at maintaining the percentage of motile and progressive sperm in addition to the speed of the movement (VAP)”. In addition, the “toxicity / effect on sperm motility and progression” value in the data set on sperm (ergothionine 1 mM, 48 hour) was “effective and non-toxic, with no negative effect on sperm motility and progression”. The “effectiveness of exposed sperm in fertilisation versus PBS” value in data set [1] is “more effective that those exposed to PBS”. The “impact on fertility in rats” value with rats [2] is on record as “no negative impact on fertility”. Moreover, the “safety for embryo development” value with embryo development is “safe for embryo development”. In data set [3], the water solubility entry is on record as “water soluble”. For the same compound, the “concentrations beneficial for bovine embryo development” value in [4] is “up to 0.1 mM”. Moreover, the “concentrations that negatively affect bovine embryo development” value in data set [4] is above 500 µM. Also, in the data set on rats [5], the “adverse effects in rats” value was “no adverse effects observed”. Also, the “concentrations beneficial for in vitro maturation of sheep oocytes” value in the data set on sheep oocytes is reported as “up to 10 mM”. Moreover, the “protection against 8-OH-G formation on sperm DNA” value in the data set on 8-OH-G on sperm DNA (ergothionine 0.1 mM, 48 hour, FIG. 3a) is “ability to protect against 8-OH-G formation on sperm DNA”. In addition, the “cytoprotective effect against 8-OH-G formation (dose dependence)” value in the data set with 8-OH-G on sperm DNA (ergothionine 1 mM vs 0.1 mM, 48 hours, FIG. 3b) is “even greater cytoprotective effect”.
